Reference: the SangsterLogP compilation

How the values were obtained:
[1] = method code SF-RC, from PMID: 582926
[2] = method code SF-CR, from PMID: 582926
[3] = method code SF-AS, from PMID: 582926

SMILES | logP [1] | logP [2] | further results
CO[C@H]1[C@@H](O)C[C@H](O[C@H]2[C@@H](O)C[C@H](O[C@H]3[C@@H](O)C[C@H](O[C@H]4CC[C@@]5(C)[C@H](CC[C@@H]6[C@@H]5C[C@@H](O)[C@]5(C)[C@@H](C7=CC(=O)OC7)CC[C@]65O)C4)O[C@@H]3C)O[C@@H]2C)O[C@@H]1C | 1.73 | – | –
CO[C@H]1[C@H](O)[C@H](O[C@H]2CC[C@@]3(C)[C@H](CC[C@@H]4[C@@H]3CC[C@]3(C)[C@@H](C5=CC(=O)OC5)CC[C@]43O)C2)O[C@@H](C)[C@@H]1O | – | 2.1 | –
CO[C@H]1C[C@H](O[C@H]2CC[C@@]3(C)[C@H](CC[C@@H]4[C@@H]3CC[C@]3(C)[C@@H](C5=CC(=O)OC5)CC[C@]43O)C2)O[C@@H](C)[C@@H]1O | 2.37 | – | –
C[C@H]1O[C@@H](O[C@H]2CC[C@]3(C=O)[C@H]4CC[C@]5(C)[C@@H](C6=CC(=O)OC6)CC[C@]5(O)[C@@H]4CC[C@]3(O)C2)C[C@H](O)[C@@H]1O | – | 0.3 | –
CO[C@H]1CC(O[C@H]2CC[C@@]3(C)[C@H](CC[C@@H]4[C@@H]3CC[C@]3(C)[C@@H](C5=CC(=O)OC5)[C@@H](OC(C)=O)C[C@]43O)C2)O[C@H](C)C1=O (stereo not given in full) | 1.65 | – | –
C[C@]12CC[C@H](O)C[C@H]1CC[C@H]1C3=CC[C@H](C4=CC(=O)OC4)[C@@]3(C)CC[C@@H]12 | 2.52 | – | –
CC1OC(OC2CCC3(CO)C4CCC5(C)C6(C=CC(=O)OC6)CCC5(O)C4CCC3(O)C2)CC(O)C1O (stereo not given) | – | 0.15 | –
C[C@@H]1O[C@@H](O[C@H]2CC[C@]3(C=O)[C@H]4CC[C@]5(C)[C@@H](C6=CC(=O)OC6)CC[C@]5(O)[C@@H]4CC[C@]3(O)C2)[C@H](O)[C@H](O)[C@H]1O | – | -0.48 | –
CC(=O)OC1CC(OC2CCC3(C)C(CCC4C3CC(O)C3(C)C(C5=CC(=O)OC5)CCC43O)C2)OC(C)C1OC1CC(O)C(OC2CC(O)C(O)C(C)O2)C(C)O1 (stereo not given) | – | 1.71 | –
C[C@@H]1O[C@@H](O[C@@H]2C=C3CC[C@@H]4[C@H](CC[C@]5(C)[C@@H](c6ccc(=O)oc6)CC[C@]45O)[C@@]3(C)CC2)[C@H](O)[C@H](O)[C@H]1O | – | – | logP [3]: 2.48
CC1OC(OC2CCC3(C)C(CCC4C3CC(O)C3(C)C(C5=CC(=O)OC5)CCC43O)C2)CC(O)C1OC1CC(O)C(OC2CC(O)C(OC3OC(C(=O)O)C(O)C(O)C3O)C(C)O2)C(C)O1 (stereo not given) | -1.77 | – | –
C[C@H]1O[C@@H](O[C@H]2[C@@H](O)C[C@H](O[C@H]3CC[C@@]4(C)[C@@H](CC[C@@H]5[C@@H]4CC[C@]4(C)[C@@H](C6=CC(=O)OC6)CC[C@]54O)C3)O[C@@H]2C)C[C@H](O)[C@@H]1O | 2.15 | – | –
COC1CC(OC2CC[C@@]3(C)[C@H](CC[C@@H]4[C@H]3CC[C@]3(C)C(C5=CC(=O)OC5)C(OC(C)=O)C[C@]43O)C2)OC(C)C1O (stereo not given in full) | – | 2.26 | –
CC12CCC(OC3OC(CO)C(O)C(O)C3O)CC1CCC1C2CCC2(C)C(C3=CC(=O)OC3)CCC12O (stereo not given) | – | -0.64 | –
CC(=O)OC1CC2(O)C3CCC4CC(O)CCC4(C)C3CCC2(C)C1C1=CC(=O)OC1 (stereo not given) | 1.93 | – | –
C[C@H]1O[C@@H](O[C@H]2CC[C@@]3(C)[C@H](CC[C@@H]4[C@@H]3CC[C@]3(C)[C@@H](C5=CC(=O)OC5)CC[C@]43O)C2)C[C@H](O)[C@@H]1O[C@H]1C[C@H](O)[C@H](O[C@H]2C[C@H](O)[C@H](O[C@@H]3O[C@H](C(=O)O)[C@@H](O)[C@H](O)[C@H]3O)[C@@H](C)O2)[C@@H](C)O1 | -1.1 | – | –
CC(=O)O[C@H]1C[C@]2(O)[C@@H]3CC[C@@H]4C[C@@H](O[C@H]5C[C@H](O)[C@H](O[C@H]6C[C@H](O)[C@H](O[C@H]7C[C@H](O)[C@H](O)[C@@H](C)O7)[C@@H](C)O6)[C@@H](C)O5)CC[C@]4(C)[C@H]3CC[C@]2(C)[C@H]1C1=CC(=O)OC1 | – | 2.15 | –
CO[C@H]1C[C@H](O[C@H]2CCC3(CO)C4CCC5(C)[C@@H](C6=CC(=O)OC6)CCC5(O)C4CCC3(O)C2)O[C@H](C)[C@H]1O (stereo not given in full) | – | 0.56 | –
CO[C@H]1[C@H](O)[C@H](O[C@H]2CC[C@@]3(C=O)[C@H](CC[C@@H]4[C@@H]3CC[C@]3(C)[C@@H](C5=CC(=O)OC5)CC[C@]43O)C2)O[C@@H](C)[C@@H]1O | – | 1.05 | –
CC(=O)OC1C[C@@H](OC2C(O)C[C@@H](OC3C(O)C[C@@H](OC4CC[C@@]5(C)[C@H](CC[C@H]6[C@H]5CC(O)[C@]5(C)C(C7=CC(=O)OC7)CC[C@]65O)C4)OC3C)OC2C)OC(C)C1O[C@H]1OC(CO)C(O)C(O)C1O (stereo not given in full) | 0.07 | – | –
CC1O[C@H](O[C@H]2CC[C@]3(CO)C4CC[C@]5(C)[C@@H](C6=CC(=O)OC6)CC[C@]5(O)C4CC[C@]3(O)C2)C(O)C(O)[C@@H]1O (stereo not given in full) | -0.62 | – | –
CC1OC(OC2CCC3(C)C(CCC4C3CCC3(C)C(C5=CC(=O)OC5)C(O)CC43O)C2)CC(O)C1O (stereo not given) | 1.76 | – | –
CC(=O)O[C@H]1C[C@H](O[C@H]2CC[C@@]3(C)[C@H](CC[C@@H]4[C@@H]3C[C@@H](O)[C@]3(C)[C@@H](C5=CC(=O)OC5)CC[C@]43O)C2)O[C@H](C)[C@H]1O[C@H]1C[C@H](OC(C)=O)[C@H](O[C@H]2C[C@H](O)[C@H](O)[C@@H](C)O2)[C@@H](C)O1 | – | 2.45 | –
CC(=O)O[C@H]1[C@@H](OC(C)=O)C[C@H](O[C@H]2[C@@H](OC(C)=O)C[C@H](O[C@H]3[C@@H](OC(C)=O)C[C@H](O[C@H]4CC[C@@]5(C)[C@H](CC[C@@H]6[C@@H]5CC[C@]5(C)[C@@H](C7=CC(=O)OC7)[C@@H](OC(C)=O)C[C@]65O)C4)O[C@@H]3C)O[C@@H]2C)O[C@@H]1C | – | 2.85 | –
C[C@H]1O[C@@H](O[C@H]2[C@@H](O)C[C@H](O[C@H]3[C@@H](O)C[C@H](O[C@H]4CC[C@@]5(C)[C@H](CC[C@@H]6[C@@H]5CC[C@]5(C)[C@@H](C7=CC(=O)OC7)[C@@H](O)C[C@]65O)C4)O[C@@H]3C)O[C@@H]2C)C[C@H](O)[C@@H]1O | – | 1.66 | –
C[C@@H]1O[C@@H](O[C@H]2CC[C@@]3(C)[C@H](CC[C@@H]4[C@@H]3CC[C@]3(C)[C@@H](C5=CC(=O)OC5)CC[C@]43O)C2)[C@H](O)[C@H](O)[C@H]1O | – | 2.1 | –
CC(=O)O[C@H]1C[C@H](O[C@H]2[C@@H](O)C[C@H](O[C@H]3[C@@H](O)C[C@H](O[C@H]4CC[C@@]5(C)[C@@H](CC[C@@H]6[C@H]5CC[C@]5(C)[C@@H](C7=CC(=O)OC7)CC[C@]65O)C4)O[C@@H]3C)O[C@@H]2C)O[C@H](C)[C@H]1O[C@@H]1O[C@H](CO)[C@@H](O)[C@H](O)[C@H]1O | 1.23 | – | –
CO[C@H]1CC(O[C@H]2CC[C@@]3(C)[C@H](CC[C@@H]4[C@@H]3CC[C@]3(C)[C@@H](C5=CC(=O)OC5)[C@@H](OC(C)=O)C[C@]43O)C2)O[C@@H](C)[C@@H]1OC(C)=O (stereo not given in full) | 2.95 | – | –
CC1OC(OC2CCC3(C)C(CCC4C3CCC3(C)C(C5=CC(=O)OC5)CCC43O)C2)CC(O)C1O (stereo not given) | 2.48 | – | –
CC(=O)OC1CC(OC2C(O)CC(OC3C(O)CC(OC4CCC5(C)C(CCC6C5CC(O)C5(C)C(C7=CC(=O)OC7)CCC65O)C4)OC3C)OC2C)OC(C)C1O (stereo not given) | 1.97 | – | –
